According to the NIST ThermoML archive (doi:10.1021/je300827f):

Assay: xn = mol fraction of the nth substance listed
Conditions: 101 kPa, Liquid; for viscosity: Capillary tube (Ostwald / Ubbelohde) method; for mass density: Vibrating tube method

CCCCCC(C)O (stereo not drawn) [2-heptanol] + OCCOCCO
Conditions	mass density, 298.15 K [kg/m3]	mass density, 303.15 K [kg/m3]	mass density, 308.15 K [kg/m3]	mass density, 313.15 K [kg/m3]	viscosity, 298.15 K [mPa·s]	viscosity, 303.15 K [mPa·s]	viscosity, 308.15 K [mPa·s]	viscosity, 313.15 K [mPa·s]
x2 = 0	813.2	809.3	805	801.1	5.02	4.15	3.48	2.85
x2 = 0.0807	829.4	825.2	820.9	817	5.22	4.45	3.98	3.04
x2 = 0.1596	846.1	841.8	837.5	833.5	5.27	4.66	4.23	3.21
x2 = 0.2397	864.1	859.8	855.3	851.2	5.38	4.89	4.39	3.42
x2 = 0.3501	890.9	886.5	881.9	877.7	5.94	5.44	4.7	3.87
x2 = 0.4398	914.4	910.1	905.3	901.2	6.95	6.21	5.2	4.45
x2 = 0.5602	948.9	944.5	939.8	935.5	9.32	7.87	6.43	5.64
x2 = 0.6501	977.1	972.8	968.2	963.9	11.89	9.69	7.84	6.89
x2 = 0.7402	1007.7	1003.6	999.1	994.9	15.13	12.04	9.71	8.46
x2 = 0.8501	1048.8	1044.9	1040.6	1036.6	19.86	15.65	12.54	10.82
x2 = 0.9397	1085.7	1082.1	1078.4	1074.6	24.15	19.2	15.27	13.1
